Experimental data as given in the CheMixHub viscosity set.
“And” between values parts separate entries of the source, which are not always exact repeats. Equal entries are not always repeated. ± gives the uncertainty stated by the source.

Assay: xn = mol fraction of the nth substance listed

## C=C(C)C(=O)OC + CO
293.15 K, 101 kPa, x2 = 0.1152
  viscosity: 0.5752 ± 0.0047 mPa·s
293.15 K, 101 kPa, x2 = 0.2092
  viscosity: 0.5665 ± 0.0045 mPa·s
293.15 K, 101 kPa, x2 = 0.3024
  viscosity: 0.5622 ± 0.0043 mPa·s
293.15 K, 101 kPa, x2 = 0.4008
  viscosity: 0.5592 ± 0.0042 mPa·s
293.15 K, 101 kPa, x2 = 0.5011
  viscosity: 0.5546 ± 0.0041 mPa·s
293.15 K, 101 kPa, x2 = 0.6041
  viscosity: 0.5576 ± 0.004 mPa·s
293.15 K, 101 kPa, x2 = 0.7013
  viscosity: 0.5612 ± 0.0039 mPa·s
293.15 K, 101 kPa, x2 = 0.8003
  viscosity: 0.5709 ± 0.0039 mPa·s
293.15 K, 101 kPa, x2 = 0.9033
  viscosity: 0.5792 ± 0.0039 mPa·s
298.15 K, 101 kPa, x2 = 0.1152
  viscosity: 0.5416 ± 0.0044 mPa·s
298.15 K, 101 kPa, x2 = 0.2092
  viscosity: 0.5329 ± 0.0042 mPa·s
298.15 K, 101 kPa, x2 = 0.3024
  viscosity: 0.5294 ± 0.0041 mPa·s
298.15 K, 101 kPa, x2 = 0.4008
  viscosity: 0.5266 ± 0.004 mPa·s
298.15 K, 101 kPa, x2 = 0.5011
  viscosity: 0.5222 ± 0.0039 mPa·s
298.15 K, 101 kPa, x2 = 0.6041
  viscosity: 0.5232 ± 0.0038 mPa·s
298.15 K, 101 kPa, x2 = 0.7013
  viscosity: 0.5269 ± 0.0038 mPa·s
298.15 K, 101 kPa, x2 = 0.8003
  viscosity: 0.5357 ± 0.0037 mPa·s
298.15 K, 101 kPa, x2 = 0.9033
  viscosity: 0.5425 ± 0.0037 mPa·s
303.15 K, 101 kPa, x2 = 0.1152
  viscosity: 0.5126 ± 0.0042 mPa·s
303.15 K, 101 kPa, x2 = 0.2092
  viscosity: 0.5046 ± 0.0041 mPa·s
303.15 K, 101 kPa, x2 = 0.3024
  viscosity: 0.5012 ± 0.0039 mPa·s
303.15 K, 101 kPa, x2 = 0.4008
  viscosity: 0.4973 ± 0.0038 mPa·s
303.15 K, 101 kPa, x2 = 0.5011
  viscosity: 0.4928 ± 0.0037 mPa·s
303.15 K, 101 kPa, x2 = 0.6041
  viscosity: 0.4944 ± 0.0036 mPa·s
303.15 K, 101 kPa, x2 = 0.7013
  viscosity: 0.4965 ± 0.0036 mPa·s
303.15 K, 101 kPa, x2 = 0.8003
  viscosity: 0.5036 ± 0.0036 mPa·s
303.15 K, 101 kPa, x2 = 0.9033
  viscosity: 0.5088 ± 0.0036 mPa·s
308.15 K, 101 kPa, x2 = 0.1152
  viscosity: 0.4841 ± 0.004 mPa·s
308.15 K, 101 kPa, x2 = 0.2092
  viscosity: 0.4783 ± 0.0039 mPa·s
308.15 K, 101 kPa, x2 = 0.3024
  viscosity: 0.4739 ± 0.0038 mPa·s
308.15 K, 101 kPa, x2 = 0.4008
  viscosity: 0.4705 ± 0.0036 mPa·s
308.15 K, 101 kPa, x2 = 0.5011
  viscosity: 0.4665 ± 0.0035 mPa·s
308.15 K, 101 kPa, x2 = 0.6041
  viscosity: 0.4673 ± 0.0035 mPa·s
308.15 K, 101 kPa, x2 = 0.7013
  viscosity: 0.4689 ± 0.0034 mPa·s
308.15 K, 101 kPa, x2 = 0.8003
  viscosity: 0.4748 ± 0.0034 mPa·s
308.15 K, 101 kPa, x2 = 0.9033
  viscosity: 0.4792 ± 0.0034 mPa·s
313.15 K, 101 kPa, x2 = 0.1152
  viscosity: 0.4611 ± 0.0039 mPa·s
313.15 K, 101 kPa, x2 = 0.2092
  viscosity: 0.4552 ± 0.0037 mPa·s
313.15 K, 101 kPa, x2 = 0.3024
  viscosity: 0.4511 ± 0.0036 mPa·s
313.15 K, 101 kPa, x2 = 0.4008
  viscosity: 0.4474 ± 0.0035 mPa·s
313.15 K, 101 kPa, x2 = 0.5011
  viscosity: 0.4428 ± 0.0034 mPa·s
313.15 K, 101 kPa, x2 = 0.6041
  viscosity: 0.4435 ± 0.0033 mPa·s
313.15 K, 101 kPa, x2 = 0.7013
  viscosity: 0.4441 ± 0.0033 mPa·s
313.15 K, 101 kPa, x2 = 0.8003
  viscosity: 0.4493 ± 0.0033 mPa·s
313.15 K, 101 kPa, x2 = 0.9033
  viscosity: 0.4529 ± 0.0033 mPa·s
318.15 K, 101 kPa, x2 = 0.1152
  viscosity: 0.4391 ± 0.0037 mPa·s
318.15 K, 101 kPa, x2 = 0.2092
  viscosity: 0.4335 ± 0.0036 mPa·s
318.15 K, 101 kPa, x2 = 0.3024
  viscosity: 0.4297 ± 0.0035 mPa·s
318.15 K, 101 kPa, x2 = 0.4008
  viscosity: 0.4261 ± 0.0034 mPa·s
318.15 K, 101 kPa, x2 = 0.5011
  viscosity: 0.4212 ± 0.0033 mPa·s
318.15 K, 101 kPa, x2 = 0.6041
  viscosity: 0.4228 ± 0.0032 mPa·s
318.15 K, 101 kPa, x2 = 0.7013
  viscosity: 0.4243 ± 0.0032 mPa·s
318.15 K, 101 kPa, x2 = 0.8003
  viscosity: 0.4259 ± 0.0031 mPa·s
318.15 K, 101 kPa, x2 = 0.9033
  viscosity: 0.4285 ± 0.0031 mPa·s
323.15 K, 101 kPa, x2 = 0.1152
  viscosity: 0.4195 ± 0.0036 mPa·s
323.15 K, 101 kPa, x2 = 0.2092
  viscosity: 0.4138 ± 0.0035 mPa·s
323.15 K, 101 kPa, x2 = 0.3024
  viscosity: 0.4101 ± 0.0033 mPa·s
323.15 K, 101 kPa, x2 = 0.4008
  viscosity: 0.4063 ± 0.0032 mPa·s
323.15 K, 101 kPa, x2 = 0.5011
  viscosity: 0.4022 ± 0.0032 mPa·s
323.15 K, 101 kPa, x2 = 0.6041
  viscosity: 0.4031 ± 0.0031 mPa·s
323.15 K, 101 kPa, x2 = 0.7013
  viscosity: 0.4043 ± 0.0031 mPa·s
323.15 K, 101 kPa, x2 = 0.8003
  viscosity: 0.4057 ± 0.003 mPa·s
323.15 K, 101 kPa, x2 = 0.9033
  viscosity: 0.4065 ± 0.003 mPa·s

## C[N+](C)(C)CCC[N+]1(C)CCCCC1.N#C[N-]C#N.N#C[N-]C#N + CO
303.15 K, 100 kPa, x1 = 0.7998
  viscosity: 918.9 ± 120 mPa·s
313.15 K, 100 kPa, x1 = 0.7998
  viscosity: 488.5 ± 60 mPa·s
323.15 K, 100 kPa, x1 = 0.0999
  viscosity: 2.735 ± 0.28 mPa·s

## C=C(C)C(=O)OC + COCCO
298.15 K, 101.3 kPa, x1 = 0.0557
  viscosity: 1.449 ± 0.009 mPa·s
298.15 K, 101.3 kPa, x1 = 0.1541
  viscosity: 1.237 ± 0.008 mPa·s
298.15 K, 101.3 kPa, x1 = 0.2554
  viscosity: 1.068 ± 0.007 mPa·s
298.15 K, 101.3 kPa, x1 = 0.3538
  viscosity: 0.941 ± 0.006 mPa·s
298.15 K, 101.3 kPa, x1 = 0.4561
  viscosity: 0.836 ± 0.006 mPa·s
298.15 K, 101.3 kPa, x1 = 0.4992
  viscosity: 0.799 ± 0.005 mPa·s
298.15 K, 101.3 kPa, x1 = 0.553
  viscosity: 0.759 ± 0.005 mPa·s
298.15 K, 101.3 kPa, x1 = 0.6543
  viscosity: 0.696 ± 0.005 mPa·s
298.15 K, 101.3 kPa, x1 = 0.7542
  viscosity: 0.65 ± 0.005 mPa·s
298.15 K, 101.3 kPa, x1 = 0.8539
  viscosity: 0.616 ± 0.004 mPa·s
298.15 K, 101.3 kPa, x1 = 0.9543
  viscosity: 0.592 ± 0.004 mPa·s
308.15 K, 101.3 kPa, x1 = 0.0557
  viscosity: 1.149 ± 0.008 mPa·s
308.15 K, 101.3 kPa, x1 = 0.1541
  viscosity: 1.01 ± 0.007 mPa·s
308.15 K, 101.3 kPa, x1 = 0.2554
  viscosity: 0.892 ± 0.006 mPa·s
308.15 K, 101.3 kPa, x1 = 0.3538
  viscosity: 0.799 ± 0.006 mPa·s
308.15 K, 101.3 kPa, x1 = 0.4561
  viscosity: 0.72 ± 0.005 mPa·s
308.15 K, 101.3 kPa, x1 = 0.4992
  viscosity: 0.691 ± 0.005 mPa·s
308.15 K, 101.3 kPa, x1 = 0.553
  viscosity: 0.658 ± 0.005 mPa·s
308.15 K, 101.3 kPa, x1 = 0.6543
  viscosity: 0.606 ± 0.004 mPa·s
308.15 K, 101.3 kPa, x1 = 0.7542
  viscosity: 0.564 ± 0.004 mPa·s
308.15 K, 101.3 kPa, x1 = 0.8539
  viscosity: 0.529 ± 0.004 mPa·s
308.15 K, 101.3 kPa, x1 = 0.9543
  viscosity: 0.502 ± 0.004 mPa·s

## O=C(c1ccccc1)N(O)c1ccccc1 + CS(C)=O
308.15 K, 101 kPa, x1 = 0.1408
  viscosity: 2.065 ± 0.099 mPa·s
318.15 K, 101 kPa, x1 = 0.4694
  viscosity: 1.565 ± 0.075 mPa·s

## Cc1cccc(C)c1O + C[N+](C)(C)CCO.[Cl-]
298.15 K, 101.33 kPa, x1 = 0.7
  viscosity: 151.2 ± 58 mPa·s
298.15 K, 101.33 kPa, x1 = 0.8
  viscosity: 86.79 ± 27 mPa·s and 61.87 ± 16 mPa·s and 54.12 ± 13 mPa·s
298.15 K, 101.33 kPa, x1 = 0.9
  viscosity: 50.22 ± 12 mPa·s

## O=C(O)CCCC(=O)O + C[N+](C)(C)CCO.[Cl-]
293.15 K, 100 kPa, x2 = 0.5
  viscosity: 2968 ± 190 mPa·s
298.15 K, 100 kPa, x2 = 0.5
  viscosity: 2015 ± 120 mPa·s
303.15 K, 100 kPa, x2 = 0.5
  viscosity: 1408 ± 81 mPa·s
308.15 K, 100 kPa, x2 = 0.5
  viscosity: 1007 ± 55 mPa·s
313.15 K, 100 kPa, x2 = 0.5
  viscosity: 735.8 ± 39 mPa·s
318.15 K, 100 kPa, x2 = 0.5
  viscosity: 547.5 ± 28 mPa·s
323.15 K, 100 kPa, x2 = 0.5
  viscosity: 414.6 ± 20 mPa·s
